Data reported in patent publication US20150329864A1, “DESIGN OF OLIGONUCLEOTIDE ANALOGS AS THERAPEUTIC AGENTS” (SPRING BANK PHARMACEUTICALS, INC., priority 2010, published 2015).
Read-outs that look alike come from different tables or passages of the source.

Assays:
[1] = system: IRF3-luciferase reporter gene (activation of NOD2); assay: IRF3-luciferase reporter induction in HLE A549 cells endogenously expressing NOD2; format: cell-based, human; conditions: for Fold induction of IRF3 luciferase activity: 1 µM; for fold induction at 1 µM: Homo sapiens, A549, 12 h
Description: In the primary assays, di- and trinucleotide compounds were tested for the induction of IRF3 expression in HLE A549 cells, which are known to express NOD2.
HLE cells normally endogenously express NOD2. To determine if short oligonucleotide compounds activate NOD2, HLE cells transfected with IRF3 plasmid were employed. IRF3-luciferase transfected cells were incubated with either DMSO only (UT) or test compounds (1 μM). Following 12 h incubation, Luciferase activity was measured using Dual-Luciferase Reporter Assay System (Promega) according to the manufacturer's protocol. Transection efficiency was normalized by measuring the expression of renilla Luciferase. Luciferase units (i.e., fold induction) were measured by standard methodology.

[2] = In vitro cytotoxicity, MTT assay; format: cell-based; conditions: cattle (MDBK), African green monkey (Vero), human (HFF)
Description: Compounds 5 and 6k have excellent safety profile with CC50>1000 micromolar in a number of cell lines. Standard MTT assays were performed in 96-well plates using the Promega CellTiter96 Non-radioactive Cell Proliferation Assay Kit in conjunction with a 96-well Plate Reader (ThermoMax, Molecular devices), and MDBK, Vero, and HFF cell lines (obtained from ATCC). Several controls were employed including the nucleoside analogs 3TC, AZT, and ddC, as well as, media without drugs. SDS was used as a positive cytotoxic control. The compounds were tested in triplicate at concentrations of 100, 300, and 1000 μM. Following a 24-hour incubation of cells with the test substance, the MTT assay was carried out.

[3] = system: Human Respiratory Syncytial Virus (RSV); assay: RSV infectivity, plaque assay; format: cell-based; conditions: human lung epithelial cells, RSV 0.5 MOI, 24 h post-infection
Description: (A) RSV infectivity in untreated (UT) and SMNH-treated cells. Human lung epithelial cells were infected with RSV (0.5 MOI) in the absence (DMSO only) or presence of various SMNH compounds (1 μM). At 24 h post-infection, the medium supernatant was collected and the viral titer in the supernatant was assayed by plaque assay analysis using CV-1 cell monolayer, 100% RSV infection represents viral titer from cells incubated with DMSO only (UT cells). The values represent mean±S.D. for three independent determinations. S.D. is shown as error bars.
(B) A typical plaque assay showing RSV infectivty in UT and SMNH-treated cells. Culture supernatant from RSV infected cells (+/− SMNH) was added to CV-1 cells at a dilution of […]. Plaques were observed and quantitated on methylcellulose after crystal violet staining.

[4] = system: HCV replicon AVA5 (sub-genomic (CON1), genotype 1b); assay: Primary anti-HCV assay, replicon cell line AVA5; format: cell-based; conditions: 3-day assay
Description: Antiviral activity against HCV was assessed in a 3-day assay (Okuse, et al., 2005; Antiviral. Res. 65:23; Korba, et al., 2008, Antiviral Res. 77:56) using the stably-expressing HCV replicon cell line, AVA5 (sub-genomic (CON1), genotype 1b) (Blight, et al., 2000; Science 290:1972) maintained as sub-confluent cultures on 96-well plates. Antiviral activity was determined by blot hybridization analysis of intracellular HCV RNA (normalized to the level of cellular B-actin RNA in each culture sample). Cytotoxicity was assessed by neutral red dye uptake in cultures maintained in parallel plates.
EC50, EC90, and CC50 values were calculated by linear regression analysis (MS EXCEL®, QuattroPro®) using data combined from all treated cultures Korba & Gerin, 1992, Antivir. Res. 19:55; Okuse, et al., 2005, Antivir. Res. 65:23). Standard deviations for EC50 and EC90 values are calculated from the standard errors generated by the regression analyses, EC50 and EC90 are drug concentrations at which a 2-fold, or a 10-fold depression of intracellular HCV RNA (relative to the average levels in untreated cultures), respectively was observed. […] Recombinant human interferon 2b (PBL laboratories, Inc.) is used as an assay control.

[5] = system: HBV wild type and drug resistant strains; assay: HepG2.2.15 HBV assay; format: cell-based; conditions: Hepatitis B virus, HepG2.2.15, read-out: EC50, inhibition of intracellular HBV replication
Description: Selected compounds were evaluated in in vitro cell-based HepG2.2.15 HBV assay.
Antiviral analysis. For the antiviral analyses, confluent cultures of 2.2.1.5 cells were maintained on 96-well flat-bottomed tissue culture plates in RPMI1640 medium with 2% fetal bovine serum. Cultures (6 per each test concentration on two replicate plates) were treated with 9 consecutive daily doses of the test compounds. Medium was changed daily with fresh test compounds. HBV nucleic acid and protein levels were measured 24 hours after the last treatment. Extracellular (virion) HBV DNA levels were assessed by quantitative blot hybridization. Intracellular HBV DNA levels were measured by quantitative Southern blot hybridization.

human hepatitis B virus = assay: Anti-HBV activity in the HBV transgenic mouse model, oral administration; format: in vivo, transgenic mice; conditions: for Liver HBV DNA Southern blot (pg/μg mean ± sd): p.o.
Description: Compound 6k was evaluated for anti-HBV activity in the transgenic mouse model of HBV infection. Male transgenic mouse infected with HBV, with age ranging from 78 to 108 days were used. Compound 6k was initially evaluated at a single dose of 300 mg/kg, administered daily for 14 days by oral gavage. The compounds were administered in citric acid and adefovir dipivoxil was used as a positive control. A control group which received vehicle was used a negative control. Following the treatment, mice were sacrificed and liver tissue analyzed for HBV DNA using Southern blot analysis. The data was statistically evaluated using Kruskall-Wallis non-parametric ANOVA.
(§1) (a) Male and female transgenic mice (founder 1.3.32) were infected with human hepatitis B virus. Following infection, animals were orally administered Compound 6k, or a placebo of 0.05 M citric acid, pH 2.0 once daily for 14 days. Dosage was 300 mg/kg/d for Compound 6k. The positive control, ADV, was administered at 10 mg/kg/d.
as §1, with “Male” for “(a) Male”, “add,” for “acid,”, “Dosages were 100, 10.5 and 1” for “Dosage was 300”, “6K.” for “6k.”

[6] = 1 μM, 12 h, HLE A549 cells, SMNH treated vs. untreated cells
[7] = 300 mg/kg/d, oral, once daily 14 days

SMILES	Fold induction of IRF3 luciferase activity [1, 6]	fold induction at 1 µM ([1]; 1 μM, 12 h, HLE A549 cells, SMNH treated vs. untreated cells, read-out: Fold induction of IRF3 luciferase activity)	CC50 at 24 h [2]	% inhibition of RSV at 1 μM ([3]; 1 µM)	EC50 ([4]; Hepatitis C virus, Ava5, 72 h)	EC50 [5]	fold induction at 1 µM ([1]; read-out: Fold induction of IRF3 luciferase activity, 1 μM, 12 h, HLE A549 cells, SMNH treated vs. untreated cells)	Liver HBV DNA Southern blot (pg/μg mean ± sd) (human hepatitis B virus; 1 mg/kg/d, qd × 14 d)	Liver HBV DNA Southern blot (pg/μg mean ± sd) (human hepatitis B virus; 10 mg/kg/d, qd × 14 d (Table 2))	Liver HBV DNA Southern blot (pg/μg mean ± sd) (human hepatitis B virus; 100 mg/kg/d, qd × 14 d)	reduction of liver HBV DNA compared to untreated control (human hepatitis B virus; 300 mg/kg daily for 14 days by oral gavage)	Liver HBV RNA (log transcripts ± sd) (human hepatitis B virus; [7])	QPCR Liver HBV DNA (pg/μg mean ± sd) (human hepatitis B virus; [7])	Southern blot Liver HBV DNA (pg/μg mean ± sd) (human hepatitis B virus; 300 mg/kg/d, oral, once daily 14 days (Table 1))	Liver HBV DNA Southern blot (pg/μg mean ± sd) (human hepatitis B virus; 300 mg/kg/d, qd × 14 d (Table 2))	EC50 when administered orally to a hepatitis B transgenic mouse model (human hepatitis B virus; oral)	CC50 at 24 h ([2]; MTT, 24-hour incubation, tested at 100, 300, and 1000 μM, read-out: CC50)	inhibition at 1 µM ([3]; human respiratory syncytial virus, Epithelial cell, 24 h)	EC90, 10-fold depression of intracellular HCV RNA [4]
CO[C@H]1C(OP(=O)(S)OC[C@H]2O[C@@H](n3cnc4c(N)ncnc43)CC2O)[C@@H](CO)O[C@H]1n1ccc(=O)[nH]c1=O (stereo partly drawn) [Compound 5, 3-dApsU2′-OMe]	25 fold	15 to 20	> 1 mM	82%	~3000 nM	300 to 2000 nM	–	–	–	–	–	–	–	–	–	–	–	–	–
CO[C@H]1C(OP(=O)(OC[C@H]2O[C@@H](n3cnc4c(N)ncnc43)CC2O)SCOC(=O)OC(C)C)[C@@H](CO)O[C@H]1n1ccc(=O)[nH]c1=O (stereo partly drawn) [Compound 6k]	22 fold	–	–	–	–	300 to 2000 nM	15 to 20	16.4 ± 14.7 (6) pg/μg	3.4 ± 4.4 (7) pg/μg	7.2 ± 8.9 (6) pg/μg	up to 2 log	10.8 ± 0.4 log transcripts	13.3 ± 12 pg/µg	5.7 ± 3.2 pg/µg	4.8 ± 4.4 (2) pg/μg	approximately 10 mg/kg	> 1 mM	60 to 80%	about 8 micromolar
